The source of these data is US6395757B1, “Method for treating hot flashes in humans” (priority 1998, dated 2002).

For data set [1] the following is noted: transdermal, tamoxifen-treated women; cited from earlier work.
Data set [2] is described as follows: Daily topical application of 0.5% glycopyrrolate lotion in a patient with menopausal hot flashes (Example 1). The format is in vivo, human. The procedure:
The patient is a person with a history of hot flashes and perspiration associated with menopause. They complained about profuse facial, scalp and anterior neck sweating that occurred randomly with the hot flashes. As a treatment, the patient was offered and consented to the application of 0.5% glycopyrrolate topical lotion, which they applied once daily to their forehead and face, sparing their mouth and eyes. The lotion consisted of 1.5 gm glycopyrrolate; 75 ml ethanol; 2.4 gm hydroxyethylcell; brought to a total volume of 300 ml with water and the pH adjusted to 2-4.5.

Data set [3] can be described thus: Daily topical application of 0.5% glycopyrrolate roll-on solution in tamoxifen-treated breast cancer patients (Examples 2 and 3). The format is in vivo, human. From the text: A person treated with tamoxifen for breast cancer described 8 months of hot flashes and perspiration that awakened them from sleep.
A person treated with tamoxifen for breast cancer described hot flashes and perspiration beginning on their scalp, which interfered with their sleep.

The conditions of data set [4]: solution applied to the face of the patient; cited from earlier work.
The conditions of data set [5]: cited from earlier work.
Where [6] appears, read: Example 2: person on tamoxifen, 0.5% roll-on solution daily to face.
The mark [7] stands for this setting: Example 3: person on tamoxifen, 0.5% roll-on solution daily to scalp and around hair line.

On to `Clc1cccc(Cl)c1N=C1NCCN1` [clonidine], for which the “frequency and severity of hot flashes” value in data set [1] is “only a moderate effect”.
With `C[N+]1(C)CCC(OC(=O)C(O)(c2ccccc2)C2CCCC2)C1` (centres unmarked) [glycopyrrolate], the “symptoms during continued use” value in data set [2] (daily topical roll-on lotion, subsequent 6 months) is listed as “continued to alleviate their symptoms”. For the same compound, the “perspiration associated with the hot flashes” value in data set [2] (person, menopause, 0.5% lotion once daily to forehead and face) is “complete resolution”. For the same compound, the “hot flashes associated with menopause (patient report)” value in data set [2] (person, 0.5% lotion once daily to forehead and face) was “alleviated”. In addition, in data set [3] (setting [6]), the quality of sleep entry is on record as “improvement in the quality of their sleep”; the “symptoms (hot flashes and perspiration)” value was “greatly relieved their symptoms”. Also, in data set [3] (setting [7]), the sleep entry was “improved sleep”; the “symptoms (hot flashes and perspiration)” value is reported as “greatly relieved their symptoms”. Further, in data set [4], the gustatory sweating result is on record as “prevented the gustatory sweating”.
Turning to `CC(=O)O[C@]1(C(C)=O)CC[C@H]2[C@@H]3C=C(C)C4=CC(=O)CC[C@]4(C)[C@H]3CC[C@@]21C` [megestrol acetate], the “frequency of hot flashes” value in data set [5] (low dose oral, men and women, short term study) was “reduce the frequency of hot flashes”. Moreover, in data set [5] (low dose, long term), the “side effect when taken long term” value is recorded as “chronic adrenal insufficiency can be a side effect”.
